≈ marks a conversion by molar mass, not a printed value. Some results are limits rather than exact numbers.

Data on 52 compounds can be found in PubChem BioAssay AID1996.

For this data set the following is noted: buffer; pH 7.4; 200.0 µM.
As a reminder, the kinetic solubility is the concentration staying in solution when a stock, usually in DMSO, is diluted into the medium. On to `CC(Sc1ncnc2sccc12)C(=O)Nc1ccc(S(N)(=O)=O)cc1` (configuration not stated), for which the solubility (kinetic) amounted to 8.7 µg/mL (≈ 22.1 µM).
As for `CC1(C)CC(=O)C(=CN2CCOCC2)C(=O)C1`, the figure is above 35.6 µg/mL.
As for `CCOC(=O)c1sc(NC(=O)OC)c(C(=O)OC)c1C`, the figure is below 0.6 µg/mL; as for `O=c1oc2ccccc2c(N2CCOCC2)c1[N+](=O)[O-]`, above 41.4 µg/mL.
As for `COc1ccc(N2C(=O)c3ccccc3NC2(C)C)cc1`, the figure is 8.3 µg/mL (≈ 29.4 µM).
`NC(CSCc1cccc(Br)c1)C(=O)O` (configuration not stated) displayed a kinetic solubility above 43.5 µg/mL.
As for `CCOc1ccccc1CNCCc1ccc2c(c1)OCO2.Cl`, the figure is 49.6 µg/mL.
As for `CC(=O)N1CCN(CC(=O)Nc2ccc(C#N)c(Cl)c2)CC1`, the figure is above 48.1 µg/mL.
The same measure for `O=C(Cn1cc(C(F)(F)F)ccc1=O)NCc1ccc(F)cc1`: above 49.2 µg/mL; for `C=CCNC(=S)N(Cc1ccccc1)Cc1ccc(F)cc1`: 14 µg/mL (≈ 44.5 µM).
With `C/C(=N\NC(=O)c1cccnc1)c1cccc([N+](=O)[O-])c1`, the solubility (kinetic) was above 42.6 µg/mL.
The same measure for `COc1cc(C(=O)NCC(=O)Nc2c(C)cccc2C)ccc1OCC(=O)N1CCOCC1`: above 68.3 µg/mL; for `COc1ccccc1C(=O)N/C(=C\c1ccccc1)C(=O)NC(C)C(=O)O` (configuration not stated): 52.2 µg/mL (≈ 142 µM).
Compound `CSCCC(NC(=O)/C(=C/c1ccco1)NC(=O)c1ccco1)C(=O)O` (configuration not stated) yielded a solubility (kinetic) above 56.8 µg/mL.
As for `COC(=O)c1ccccc1N=Nc1c(N)n[nH]c1N`, the figure is above 39 µg/mL.
The same measure for `COc1ccc(CNC(=O)COC(=O)c2ccc(Br)c(S(=O)(=O)N3CCOCC3)c2)cc1`: 34.2 µg/mL (≈ 64.8 µM); for `CC(SCc1ccccc1)C(=O)Nc1ccccc1F` (configuration not stated): 35.1 µg/mL (≈ 121 µM).
Turning to `Cc1ccc2c(c1)c1c(n2CC(O)CN2CCCCC2C)CCCC1` (configuration not stated), the solubility (kinetic) is 29.8 µg/mL (≈ 87.5 µM).
As for `O=C(NCCCCc1ccccc1)c1ccccc1`, the figure is 14.4 µg/mL (≈ 56.8 µM).
For `CC(C)c1ccc(N=C2N=C(N)c3ccccc32)cc1`, the solubility (kinetic) stood at 15.4 µg/mL (≈ 58.5 µM).
The same measure for `O=C(CN1C(=O)NC(c2ccccc2)(c2ccccc2)C1=O)NCc1ccco1`: 13.7 µg/mL (≈ 35.2 µM); for `CC(=O)c1cccc(Nc2cc(C)nc3ccc(C)cc23)c1.Cl`: 46.9 µg/mL; for `Cc1ccc(S(=O)(=O)N[C@H](C(=O)NC2CCC(C)CC2)C(C)C)cc1` (some centres not stated): 24 µg/mL (≈ 65.5 µM).
As for `Cc1ccc2nc(SCC3CCCCO3)[nH]c2c1` (configuration not stated), the figure is 37.4 µg/mL (≈ 143 µM).
Compound `CC(C)(C)CC(=O)NCc1cccs1` registered a solubility (kinetic) above 31.7 µg/mL.
As for `O=C(c1c[nH]c2ccccc2c1=O)N1CCCCCC1`, the figure is above 40.5 µg/mL.
The compound `COc1ccc(C(=O)Nc2nc(-c3ccccc3)c(C(C)=O)s2)c(OC)c1` yielded a solubility (kinetic) of 0.7 µg/mL (≈ 1.83 µM).
As for `O=C(O)C1(c2ccccc2)CCC(Nc2ccccc2)C1` (configuration not stated), the figure is 39.7 µg/mL (≈ 141 µM); as for `COc1ccccc1CNC(=O)c1cccnc1`, above 36.3 µg/mL.
The same measure for `COc1ccc(/C=C/C(=O)NC2CC3CCC2C3)cc1` (configuration not stated): 6.9 µg/mL (≈ 25.4 µM).
As for `Cl.NCc1ccc2[nH]c(=O)[nH]c2c1`, the figure is above 29.9 µg/mL; as for `CCOc1ccc(CCNC(=O)COC(=O)c2ccc(C)s2)cc1OCC`, 23.7 µg/mL (≈ 60.5 µM).
`CC1(NC(=O)CCc2nc3ccccc3c(=O)[nH]2)CCS(=O)(=O)C1` (configuration not stated) gave a solubility (kinetic) of 49.2 µg/mL (≈ 141 µM).
As for `Cc1cc2cc(CNC(=O)Nc3ccccc3)ccc2[nH]1`, the figure is 15.6 µg/mL (≈ 55.8 µM); as for `Clc1ccc2oc(SCc3cccnc3)nc2c1`, 3.5 µg/mL (≈ 12.6 µM).
Turning to `COc1ccc(C2NC(=O)C(C#N)=C(S)N2c2ccccc2)cc1OC` (configuration not stated), the kinetic solubility was above 55.1 µg/mL.
As for `COc1ccc(-c2cc3ccccc3nc2N)cc1OC`, the figure is 3 µg/mL (≈ 10.7 µM); as for `Cc1cc(NC(=O)c2ccccc2)ccc1NC(=O)Cc1ccccc1`, 0.8 µg/mL (≈ 2.32 µM).
As for `CCN(CC(=O)NCc1cccs1)C(=O)c1cc(Br)ccc1O`, the figure is above 59.6 µg/mL; as for `O=C(COC(=O)c1ccc(Cl)nc1)NC1CCCCCC1`, above 46.6 µg/mL.
The same measure for `Cc1ncc2c(n1)-c1cc(F)ccc1SC2`: 28.9 µg/mL (≈ 124 µM).
Take `N#C/C(=C\c1ccc(OCC(N)=O)cc1)C(=O)NC1CC1`: the solubility (kinetic) is above 42.8 µg/mL.
Compound `CC(C)(C)c1ccc(OCC(=O)Nc2ccncc2)c(Br)c1` returned a solubility (kinetic) of 10.4 µg/mL (≈ 28.6 µM).
As for `C[C@H](NC(=O)N1CCn2c1nc1ccccc12)C(=O)NC1CC1`, the figure is above 47 µg/mL.
The same measure for `CCOC(=O)C(Cc1ccc(Cl)cc1Cl)c1ccno1` (configuration not stated): 11.7 µg/mL (≈ 37.2 µM); for `O=C(NN=C1CCCC1)c1ccc(Cl)cc1`: above 35.5 µg/mL.
As for `CC(CN1CCOCC1)OC(=O)c1ccccc1.Cl` (configuration not stated), the figure is above 42.9 µg/mL; as for `Cc1ccc(NC(=S)NC(=O)C2CCC2)cc1C`, 3.3 µg/mL (≈ 12.6 µM).
`Cc1nn(CC(=O)N(C)C2(C#N)CCCCC2)c(C)c1[N+](=O)[O-]` yielded a solubility (kinetic) above 47.9 µg/mL.
The same measure for `CCOC(=O)c1sc(Nc2nc(C)cc(OC)n2)nc1C`: 5.1 µg/mL (≈ 16.5 µM).
The same measure for `CN(C)Cc1c(O)ccc2ccccc12`: 29.8 µg/mL (≈ 148 µM); for `CC(=O)C1=C(O)C(=O)N(c2ccc(O)cc2)C1c1ccc(C)cc1` (configuration not stated): above 48.5 µg/mL.
